Assay results: EP4692088A1, “COMPOUND ACTING AS WRN HELICASE INHIBITOR” (SHANGHAI JEYOU PHARMACEUTICAL CO., LTD., priority 2023, dated 2024)

Experiments:
SW48 cells = test: Cell proliferation assay (CellTiter-Glo), SW48; assay type: cell-based; conditions: Homo sapiens, SW48, 120 h, SW-48, 5 days incubation
Procedure: (§1) SW48 cells were plated at a density of 1,500 cells/well, and LoVo, HCT116, and SW620 cells were plated at a density of 800 cells/well in a 96-well cell culture plate, and cultured in a 37°C incubator overnight. The test compounds, which were gradient-diluted with DMSO, were added, and after incubation for 5 days, cell viability was detected using a CellTiter-Glo kit. The CellTiter-Glo reagent was equilibrated to room temperature, and an appropriate amount was added to the cell plate, followed by shaking at room temperature for 12 min. The luminescence signal was detected using a microplate reader.
(§2) The luminescence signal values of the DMSO-treated wells and cell-free wells were used as negative and positive controls, respectively, to calculate the inhibition rate of compound on cell proliferation. The concentration-inhibition curve was fitted using the "log(inhibitor) vs. normalized response -- Variable slope" equation in GraphPad Prism 8 software to obtain the IC50. [formula]

SW620 cells = test: Cell proliferation assay (CellTiter-Glo), SW620; assay type: cell-based; conditions: Homo sapiens, 120 h, SW-620 (MSS), 5 days incubation
Procedure: as §1, §2

HCT116 = test: γH2AX induction assay (HTRF Phospho-H2AX), HCT116; assay type: cell-based; conditions: Homo sapiens, HCT-116, incubated for 2-3 days, read-out: γ-H2AX induction HCT-116 (EC50 nM)
Procedure: SW48, HCT116, and SW620 cells were plated into 96-well cell culture plates at a density of 15,000-25,000 cells/well and cultured overnight in a 37°C incubator. The test compounds, which were gradient-diluted with DMSO, were added and incubated for 2-3 days. The γ-H2AX level was detected using HTRF Phospho-H2AX (SER139) Detection Kits. The 4× Lysis buffer and Detection buffer were equilibrated to room temperature for later use. The 4× Lysis buffer was diluted to 1× Lysis buffer using ddH2O. After the medium was aspirated, 50 µL of 1× Lysis buffer was added to each well and shaken at room temperature for 30 minutes for lysis. 16 µL of lysate was transferred to a 384-well plate, followed by the addition of 4 µL of diluted antibody mixture (Phospho-H2AX d2 antibody and Phospho-H2AX Eu Cryptate antibody were each diluted 20-fold using Detection buffer, and the two antibodies were then mixed uniformly at a 1:1 volume ratio). The mixture was incubated at room temperature for 2-24 h, and fluorescence signals at […] and 615 nm were detected using a microplate reader. Parallel treatment plates were simultaneously set up in the experiment, and cell viability was detected using the CellTiter-Glo kit. The CellTiter-Glo reagent was equilibrated to room temperature, and an appropriate amount was added to the cell plate, followed by shaking at room temperature for 12 min. The luminescence signal was detected using a microplate reader.
The fluorescence signal values of DMSO-treated wells and positive drug-treated wells were used as negative and positive controls, respectively, to calculate the level of γ-H2AX induced by the compounds. The concentration-induction rate curve was fitted using the "log(agonist) vs. response -- Variable slope (four parameters)" equation in GraphPad Prism 8 software to obtain the EC50. [formula] [formula]

[1] = Pharmacokinetic test in rats; assay type: in vivo; conditions: rat; SD rats, male, oral gavage, 10 mg/kg, plasma
Procedure: SD rats were taken as test animals. Example 4, Example 15, and Comparative Example HRO761 were given by gavage. The drug concentrations in rat plasma at different time points were determined by LC-MS/MS to investigate the pharmacokinetic characteristics of Example 4, Example 15, and Comparative Example HRO761 in rats.
• Experimental drugs: Example 4, Example 15, and Comparative Example HRO761; • Animals: SD rats, male, 240-260 g, purchased from Shanghai Jihui Laboratory Animal Care Co.,Ltd.
(§3) An appropriate amount of Example 4, Example 15, and Comparative Example HRO761 was weighed and added to an appropriate amount of dimethyl sulfoxide, solutol, and saline (final solvent: 5% DMSO + 10% solutol + 85% saline). The mixture was vortexed and sonicated to prepare a 1.0 mg/mL dosing solution.
The rats in gavage groups (3 rats per group) of Example 4, Example 15, and Comparative Example HRO761 were administered by oral gavage after overnight fasting (dose: 10 mg/kg, administration volume: 10 mL/kg), and the rats were fed 4 h after administration.
(§4) 0.2 mL of blood was collected from the animals before administration and at 0.083 h, 0.25 h, 0.5 h, 1 h, 2 h, 4 h, 6 h, 8 h, and 24 h after administration, and anticoagulated with sodium heparin. Blood samples were placed on ice after collection, and plasma was separated by centrifugation (centrifugation conditions: 8000 rpm, 5 min). The collected plasma was stored at -80°C before analysis.
The contents of Example 4, Example 15, and Comparative Example HRO761 in rat plasma after oral administration were determined by LC-MS/MS.
(§5) Based on the calculated concentrations of the compounds in plasma at different time points, the pharmacokinetic parameters of Example 4, Example 15, and Comparative Example HRO761 in rats were calculated using winnonlin software. The pharmacokinetic parameters of Example 4, Example 15, and Comparative Example HRO761 of the present disclosure are shown in Table 14.

[2] = Pharmacokinetic test in mice; assay type: in vivo; conditions: mouse; CD-1 mice, male, oral gavage, 10 mg/kg, plasma
Procedure: CD-1 mice were taken as test animals. Example 4, Example 22, and Comparative Example HRO761 were given by gavage. The drug concentrations in mouse plasma at different time points were determined by LC-MS/MS to investigate the pharmacokinetic characteristics of the compounds of the present disclosure in mice.
• Experimental drugs: Example 4, Example 22, and Comparative Example HRO761; • Animals: CD-1 mice, male, 24-25 g, purchased from Shanghai Jihui Laboratory Animal Care Co.,Ltd.
as §3, with “4, Example 22, and Comparative” for “4, Example 15, and Comparative”, “weighed and sequentially added to” for “weighed and added to”
Three mice in gavage groups of Example 4, Example 22, and Comparative Example HRO761 were administered by oral gavage after overnight fasting (dose: 10 mg/kg, administration volume: 10 mL/kg), and the mice were fed 4 h after administration.
as §4, with “0.04 mL” for “0.2 mL”
LC-MS/MS was used to determine the content of the test compound in mouse plasma after intragastric administration.
as §5, with “22,” for “15,”, “mice” for “rats”, “13.” for “14.”

Row | SMILES | IC50 (SW48 cells) | IC50 (SW620 cells) | EC50 (HCT116) | AUC(0-inf) [1] | Cmax [1] | AUC(0-inf) [2] | Cmax [2]
1 | CCc1c(N2CCN(C(=O)c3ncnc(C)c3O)CC2)c(=O)c2nn(C3=CCOCC3)nc2n1CC(=O)Nc1ccc(C(F)(F)F)cc1Cl [Example 4] | 37.2 nM | > 25000 nM | 128 nM | 170000 ng·h/mL | 19200 ng/mL | 51500 ng·h/mL | 24800 ng/mL
2 | CCc1c(N2CCN(C(=O)c3ncnc(C)c3O)CC2)c(=O)c2nn(C3=CCOCC3)nc2n1CC(=O)Nc1cc(F)c(C(F)(F)F)cc1Cl [Example 15] | 35.4 nM | > 25000 nM | 97.1 nM | 46400 ng·h/mL | 9020 ng/mL | – | –
3 | CCc1c(N2CCN(C(=O)c3ncnc(C)c3O)CC2)c(=O)c2nn(C3=CCOCC3)nc2n1CC(=O)Nc1cc(F)c(Cl)cc1Cl [Example 22] | 70.7 nM | > 25000 nM | 168 nM | – | – | 83400 ng·h/mL | 24600 ng/mL
